# Columns and labels:
# [1] = target: High affinity 3',5'-cyclic-AMP phosphodiesterase 7A (Homo sapiens, UniProt Q13946); experiment: Inhibition of human PDE7A1 expressed in insect cells assessed as inhibition of [3H]cAMP to [3H]AMP hydrolysis after 30 mins by scintillation counting
# [2] = target: 3',5'-cyclic-AMP phosphodiesterase 4B (Homo sapiens, UniProt Q07343); experiment: Inhibition of human PDE4B1 expressed in insect cells assessed as inhibition of [3H]cAMP to [3H]AMP hydrolysis after 30 mins by scintillation counting
# Lymphocyte = experiment: Inhibition of IL2 production in activated mouse lymphocytes after 3 hrs by ELISA; format: functional, cell-based
# Liver microsome [3] = experiment: Stability in human liver microsomes; format: ADME
# Liver microsome [4] = experiment: Stability in rat liver microsomes; format: ADME
# [5] = Permeability of the compound by PAMPA; format: ADME
# Chain of 3',5'-cyclic-AMP phosphodiesterase 4B (Q07343 whole entry): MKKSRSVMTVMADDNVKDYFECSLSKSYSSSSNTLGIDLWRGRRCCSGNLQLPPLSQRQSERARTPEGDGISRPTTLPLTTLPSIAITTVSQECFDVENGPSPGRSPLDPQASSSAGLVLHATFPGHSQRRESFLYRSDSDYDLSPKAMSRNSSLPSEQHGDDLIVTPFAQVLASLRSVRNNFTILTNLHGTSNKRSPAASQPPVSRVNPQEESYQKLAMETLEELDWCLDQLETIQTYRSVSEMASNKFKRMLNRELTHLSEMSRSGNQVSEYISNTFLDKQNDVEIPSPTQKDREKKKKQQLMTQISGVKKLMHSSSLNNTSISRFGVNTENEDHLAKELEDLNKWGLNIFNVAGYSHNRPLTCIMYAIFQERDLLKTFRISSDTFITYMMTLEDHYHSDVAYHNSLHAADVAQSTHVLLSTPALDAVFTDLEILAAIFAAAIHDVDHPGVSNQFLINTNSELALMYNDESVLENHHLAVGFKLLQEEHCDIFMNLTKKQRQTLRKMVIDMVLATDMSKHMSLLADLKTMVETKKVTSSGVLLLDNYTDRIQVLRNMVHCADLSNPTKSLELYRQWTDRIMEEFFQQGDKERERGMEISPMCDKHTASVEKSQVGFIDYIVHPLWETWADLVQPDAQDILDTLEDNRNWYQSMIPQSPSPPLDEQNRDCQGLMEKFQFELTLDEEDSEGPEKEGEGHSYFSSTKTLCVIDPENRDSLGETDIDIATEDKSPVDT
# Chain of High affinity 3',5'-cyclic-AMP phosphodiesterase 7A (Q13946 whole entry): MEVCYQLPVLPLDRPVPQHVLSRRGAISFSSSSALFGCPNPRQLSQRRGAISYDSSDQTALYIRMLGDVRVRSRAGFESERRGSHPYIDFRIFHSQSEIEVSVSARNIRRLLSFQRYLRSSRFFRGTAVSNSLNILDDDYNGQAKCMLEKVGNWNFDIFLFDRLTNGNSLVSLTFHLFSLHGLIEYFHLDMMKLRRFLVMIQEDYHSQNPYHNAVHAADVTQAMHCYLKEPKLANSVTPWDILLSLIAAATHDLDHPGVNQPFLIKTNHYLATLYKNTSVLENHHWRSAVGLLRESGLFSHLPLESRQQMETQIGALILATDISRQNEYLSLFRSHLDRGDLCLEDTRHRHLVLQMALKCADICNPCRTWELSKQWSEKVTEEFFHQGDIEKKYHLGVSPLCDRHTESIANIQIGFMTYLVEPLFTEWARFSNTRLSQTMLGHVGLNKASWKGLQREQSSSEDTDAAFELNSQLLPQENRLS
SMILES,IC50 [1] [nM],IC50 [2] [nM],IC50 (Lymphocyte) [nM],Stability (Liver microsome [3]),Stability (Liver microsome [4]),permeability [5]
CCn1c(NC2CCCC2)nc2ccsc2c1=O,150,4900,5400,–,–,–
CCn1c(NC2CCCC2)nc2c(C)csc2c1=O,98,3800,> 3000,–,–,–
CCc1csc2c(=O)n(CC)c(NC3CCCC3)nc12,42,5900,2900,–,–,–
C=Cc1csc2c(=O)n(CC)c(NC3CCCC3)nc12,30,3700,980,–,–,–
C#Cc1csc2c(=O)n(CC)c(NC3CCCC3)nc12,–,3000,560,–,–,–
CCn1c(NC2CCCC2)nc2c(C#N)csc2c1=O,67,3200,890,–,–,–
CCn1c(NC2CCCC2)nc2c(C#Cc3cccnc3)csc2c1=O,4.2,1400,1300,–,–,–
CCn1c(NC2CCCC2)nc2c(C#CCN3CCOCC3)csc2c1=O,19,820,1700,–,–,–
CCn1c(NC2CCCC2)nc2c(CCc3cccnc3)csc2c1=O,7.3,1100,1000,–,–,–
CCn1c(NC2CCCC2)nc2c(-c3ccccc3)csc2c1=O,5.6,720,1800,–,–,–
CCn1c(NC2CCCC2)nc2c(-c3ccccc3C(=O)OC)csc2c1=O,380,3800,9100,–,–,–
CCn1c(NC2CCCC2)nc2c(-c3cccnc3)csc2c1=O,2,380,89,Unstable,Unstable,permeable
CCn1c(NC2CCCC2)nc2c(-c3ccc(N4CCOCC4)nc3)csc2c1=O,–,520,77,Unstable,Unstable,permeable
CCn1c(NC2CCCC2)nc2c(N3CCN(C(=O)OC(C)(C)C)CC3=O)csc2c1=O,12,3300,3000,–,–,–

# Now from value to molecule, other results behind:
IC50 [1] [nM],SMILES,IC50 [2] [nM],IC50 (Lymphocyte) [nM],Stability (Liver microsome [3]),Stability (Liver microsome [4]),permeability [5]
160,C=CCNc1nc2cc(-c3ccc(N4CCN(C(C)C)CC4)cc3)sc2c(=O)n1C,–,–,–,–,–
1100,C=CCNc1nc2cc(-c3cccc(C(=O)NCCO)c3)sc2c(=O)n1C,–,–,–,–,–
310,C=CCNc1nc2cc(-c3ccc(C(=O)NCCCN(C)C)cc3)sc2c(=O)n1C,–,–,–,–,–
6800,C=CCNc1nc2cc(-c3ccccc3)sc2c(=O)n1C,–,–,–,–,–
5000,C=CCNc1nc2ccsc2c(=O)n1C,–,–,–,–,–
740,CCn1c(NC2CCCCC2)nc2ccsc2c1=O,–,–,–,–,–
11000,CCn1c(NC2CCCC2)nc2cc(C)sc2c1=O,–,–,–,–,–
6500,CCc1cc2nc(NC3CCCC3)n(CC)c(=O)c2s1,3500,–,–,–,–
> 1000,CCn1c(NC2CCCC2)nc2cc(CNc3cccnc3)sc2c1=O,920,–,–,–,–
2600,CCn1c(NC2CCCC2)nc2cc(C(=O)Nc3ccc(N4CCC(O)CC4)nc3)sc2c1=O,–,–,–,–,–
39,CCn1c(NC2CCCC2)nc2c(CCCN3CCOCC3)csc2c1=O,3400,2000,–,–,–
5,CCn1c(NC2CCCC2)nc2c(-c3cccc(C(=O)OC)c3)csc2c1=O,480,290,–,–,–
4.9,CCn1c(NC2CCCC2)nc2c(-c3ccc(C(=O)OC)cc3)csc2c1=O,1000,1300,–,–,–
2.3,CCn1c(NC2CCCC2)nc2c(-c3ccc(CN4CCOCC4)cc3)csc2c1=O,640,1000,Unstable,Unstable,permeable

# Reference: ChEMBL document CHEMBL3351455, “Discovery of 2-(cyclopentylamino)thieno[3,2-d]pyrimidin-4(3H)-one derivatives as a new series of potent phosphodiesterase 7 inhibitors” (J Med Chem, 2014)
